Measurements reported in ChEMBL document CHEMBL1150488 (1993).
Values after ≈ are worked out from the molar mass of the structure shown.

System: Parabacteroides distasonis
Test: Tested in vitro for its antibacterial activity against Bacteroides distasonis UC6518
Format: functional

Going from `CCCCCC(=O)OC[C@@H](C)[C@H]1CN(C(=O)CCCCC)C1=O` to `CCCC(=O)OC[C@@H](C)[C@H]1CN(C(=O)CCC)C1=O`, the MIC falls from 256 µg/mL (≈ 787 µM) to 128 µg/mL (≈ 475 µM) (2-fold).

Compared with `C[C@H]1[C@H](NC(=O)/C(=N\OC(C)(C)C(=O)O)c2csc(N)n2)C(=O)N1S(=O)(=O)O` [AZTREONAM], `CCCC(=O)N1C[C@H]([C@H](C)COC(C)=O)C1=O` is higher in MIC: 64 µg/mL (≈ 147 µM) for the first, greater than 128 µg/mL for the second.

System: Bacteroides fragilis
Test: Tested for zone of inhibition against Bacteroides fragilis UC6513 (1 mg/mL, 80 microL/12.7 mm)
Format: functional

With `CCCC(=O)N1C[C@H]([C@H](C)COC(C)=O)C1=O` the Diameter of inhibition zone was 78 mm.

System: Bacteroides fragilis
Test: Tested in vitro for its antibacterial activity against Bacteroides fragilis UC9370 [clindamycin 1 micro g/mL]
Format: functional

First: CCCCCC(=O)OC[C@@H](C)[C@H]1CN(C(=O)CCCCC)C1=O
Second: CCCC(=O)OC[C@@H](C)[C@H]1CN(C(=O)CCC)C1=O
The MIC of the first is 8-fold lower: 8 µg/mL (≈ 24.6 µM) for the first, 64 µg/mL (≈ 238 µM) for the second.

Compound `CCCC(=O)N1C[C@H]([C@H](C)COC(C)=O)C1=O` has an MIC greater than 128 µg/mL.

System: Bacteroides thetaiotaomicron
Test: Tested in vitro for its antibacterial activity against Bacteroides thetaiotaomicron UC 9014[clindamycin 2 micro g/mL]
Format: functional

Compared with `CCCCCC(=O)OC[C@@H](C)[C@H]1CN(C(=O)CCCCC)C1=O`, `CCCC(=O)OC[C@@H](C)[C@H]1CN(C(=O)CCC)C1=O` is 4-fold higher in MIC: 8 µg/mL (≈ 24.6 µM) for the first, 32 µg/mL (≈ 119 µM) for the second.

Compound `CCCC(=O)N1C[C@H]([C@H](C)COC(C)=O)C1=O` has an MIC of 64 µg/mL (≈ 265 µM).

System: Prevotella melaninogenica
Test: Tested in vitro for its antibacterial activity against Bacteroides melaninogenicus UC 6523
Format: functional

`CCCCCC(=O)OC[C@@H](C)[C@H]1CN(C(=O)CCCCC)C1=O` and `CCCC(=O)OC[C@@H](C)[C@H]1CN(C(=O)CCC)C1=O` are the same in MIC: 8 µg/mL (≈ 24.6 µM) for the first, 8 µg/mL (≈ 29.7 µM) for the second.

First: C[C@H]1[C@H](NC(=O)/C(=N\OC(C)(C)C(=O)O)c2csc(N)n2)C(=O)N1S(=O)(=O)O [AZTREONAM]
Second: CCCC(=O)N1C[C@H]([C@H](C)COC(C)=O)C1=O
The MIC of the first is 16-fold lower: 4 µg/mL (≈ 9.19 µM) for the first, 64 µg/mL (≈ 265 µM) for the second.

System: Clostridium perfringens
Test: Tested in vitro for its antibacterial activity against Clostridium perfringens UC6509
Format: functional

`CCCCCC(=O)OC[C@@H](C)[C@H]1CN(C(=O)CCCCC)C1=O` and `CCCC(=O)OC[C@@H](C)[C@H]1CN(C(=O)CCC)C1=O` are the same in MIC: 128 µg/mL (≈ 393 µM) for the first, 128 µg/mL (≈ 475 µM) for the second.

In the case of `CCCC(=O)N1C[C@H]([C@H](C)COC(C)=O)C1=O`, the MIC is reported as greater than 128 µg/mL.

System: Clostridium perfringens
Test: Tested for zone of inhibition against Clostridium perfringens UC6509
Format: functional

Work on `CCCC(=O)OC[C@@H](C)[C@H]1CN(C(=O)CCC)C1=O` yielded a Diameter of inhibition zone of 63 mm.

System: Clostridium perfringens
Test: The compound (1 mg/mL, 80 microL/12.7 mm) was tested for zone of inhibition against Clostridium perfringens UC6509 (33H -, H: Hazy zone)
Format: functional

Compound `CCCC(=O)N1C[C@H]([C@H](C)COC(C)=O)C1=O` has a Diameter of inhibition zone of 33 mm.

System: Escherichia coli
Test: Tested in vitro for its antibacterial activity against Escherichia coli UC9379
Format: functional

`CCCCCC(=O)OC[C@@H](C)[C@H]1CN(C(=O)CCCCC)C1=O` and `CCCC(=O)OC[C@@H](C)[C@H]1CN(C(=O)CCC)C1=O` cannot be ordered by MIC: greater than 160 µg/mL for the first, greater than 160 µg/mL for the second.

System: Fusobacterium nucleatum
Test: Tested in vitro for its antibacterial activity against Fusobacterium nucleatum UC6324
Format: functional

Compared with `CCCCCC(=O)OC[C@@H](C)[C@H]1CN(C(=O)CCCCC)C1=O`, `CCCC(=O)OC[C@@H](C)[C@H]1CN(C(=O)CCC)C1=O` is 4-fold higher in MIC: 16 µg/mL (≈ 49.2 µM) for the first, 64 µg/mL (≈ 238 µM) for the second.

Compared with `C[C@H]1[C@H](NC(=O)/C(=N\OC(C)(C)C(=O)O)c2csc(N)n2)C(=O)N1S(=O)(=O)O` [AZTREONAM], `CCCC(=O)N1C[C@H]([C@H](C)COC(C)=O)C1=O` is 16-fold higher in MIC: 4 µg/mL (≈ 9.19 µM) for the first, 64 µg/mL (≈ 265 µM) for the second.

System: not listed separately
Test: Tested in vitro for its antibacterial activity against Peptococcus variabilis UC6320
Format: functional

`CCCCCC(=O)OC[C@@H](C)[C@H]1CN(C(=O)CCCCC)C1=O` and `CCCC(=O)OC[C@@H](C)[C@H]1CN(C(=O)CCC)C1=O` are the same in MIC: 256 µg/mL (≈ 787 µM) for the first, 256 µg/mL (≈ 950 µM) for the second.

In the case of `CCCC(=O)N1C[C@H]([C@H](C)COC(C)=O)C1=O`, the MIC is reported as 64 µg/mL (≈ 265 µM).

System: Cutibacterium acnes
Test: Tested in vitro for its antibacterial activity against Propionibacterium acnes UC6564
Format: functional

Going from `CCCCCC(=O)OC[C@@H](C)[C@H]1CN(C(=O)CCCCC)C1=O` to `CCCC(=O)OC[C@@H](C)[C@H]1CN(C(=O)CCC)C1=O`, the MIC rises from 4 µg/mL (≈ 12.3 µM) to 8 µg/mL (≈ 29.7 µM) (2-fold).

First: C[C@H]1[C@H](NC(=O)/C(=N\OC(C)(C)C(=O)O)c2csc(N)n2)C(=O)N1S(=O)(=O)O [AZTREONAM]
Second: CCCC(=O)N1C[C@H]([C@H](C)COC(C)=O)C1=O
The MIC of the first is 16-fold lower: 2 µg/mL (≈ 4.59 µM) for the first, 32 µg/mL (≈ 133 µM) for the second.

System: Streptococcus pyogenes
Test: Tsted in vitro for its antibacterial activity against Streptococcus pyogenes UC152
Format: functional

`CCCCCC(=O)OC[C@@H](C)[C@H]1CN(C(=O)CCCCC)C1=O` and `CCCC(=O)OC[C@@H](C)[C@H]1CN(C(=O)CCC)C1=O` cannot be ordered by MIC: greater than 160 µg/mL for the first, greater than 160 µg/mL for the second.

System: Staphylococcus aureus
Test: Tested for zone of inhibition against Staphylococcus aureus UC3665 (1 mg/mL, 80 microL/12.7 mm)
Format: functional

First: CCCCCC(=O)OC[C@@H](C)[C@H]1CN(C(=O)CCCCC)C1=O
Second: CCCC(=O)OC[C@@H](C)[C@H]1CN(C(=O)CCC)C1=O
The Diameter of inhibition zone of the first is higher: 31 mm for the first, 28 mm for the second.

`CCCC(=O)N1C[C@H]([C@H](C)COC(C)=O)C1=O` showed a Diameter of inhibition zone of 0 mm.

System: Staphylococcus aureus
Test: Tested for zone of inhibition against Staphylococcus aureus UC6685 (1 mg/mL, 80 microL/6.5 mm)
Format: functional

Going from `CCCCCC(=O)OC[C@@H](C)[C@H]1CN(C(=O)CCCCC)C1=O` to `CCCC(=O)N1C[C@H]([C@H](C)COC(C)=O)C1=O`, the Diameter of inhibition zone falls from 24 mm to 0 mm.

System: Staphylococcus aureus
Test: The compound (1 mg/mL, 80 microL/6.5 mm) was tested for zone of inhibition against Staphylococcus aureus UC6685 (21H -, H: Hazy zone)
Format: functional

Compound `CCCC(=O)OC[C@@H](C)[C@H]1CN(C(=O)CCC)C1=O` has a Diameter of inhibition zone of 21 mm.

System: Staphylococcus epidermidis
Test: Tested for zone of inhibition against Staphylococcus epidermidis UC719 (1 mg/mL, 80 microL/6.5 mm)
Format: functional

Going from `CCCCCC(=O)OC[C@@H](C)[C@H]1CN(C(=O)CCCCC)C1=O` to `CCCC(=O)N1C[C@H]([C@H](C)COC(C)=O)C1=O`, the Diameter of inhibition zone falls from 8 mm to 0 mm.

System: Staphylococcus epidermidis
Test: The compound (1 mg/mL, 80 microL/6.5 mm) was tested for zone of inhibition against Staphylococcus epidermidis UC719 (20H -, H: Hazy zone)
Format: functional

Work on `CCCC(=O)OC[C@@H](C)[C@H]1CN(C(=O)CCC)C1=O` yielded a Diameter of inhibition zone of 20 mm.
